In PubChem BioAssay AID2060346 (Molecular Pharmacology Branch, DTP, NCI, 2025):

System: CN0375-F725-PDC multi-cell spheroids, viability
Assay: Anticancer human tumor CN0375-F725-PDC patient-derived colon carcinoma cell line growth inhibition [TAK]
Settings: for IC50: curve of first compound; for viability, T/C: stronger effect = lower value
Text: Combinatorial screen of targeted agents with TAK-243 and ipatasertib in multi-cell type tumor spheroids
A high-throughput screen of multi-cell type tumor spheroids was designed to identify active combinations of targeted small molecules and TAK-243 or ipatasertib. Complex spheroids include a stromal component modeled by human endothelial cells (HUVEC) and fibroblasts modeled by human mesenchymal stem cells (MSCs). The concentration ranges selected for each drug and investigational agent were based upon clinically achievable concentrations if the clinical Cmax of the agent was known.
Compounds. The drugs and investigational agents: TAK-243 (785004), ipatasertib (767898), everolimus (733504), selumetinib (741078), bortezomib (756655), trametinib (758246), ixazomib (758254), vemurafenib (761431), dabrafenib (764134), sapanisertib (764658), alpelisib (765974), and copanlisib (816437), were obtained from the National Cancer Institute (NCI) Developmental Therapeutics Program Chemical Repository. The FDA-approved anticancer drug set is available from the NCI Developmental Therapeutics Program. […] The stock solutions were prepared in dimethyl sulfoxide (DMSO, Sigma-Aldrich, St. Louis, MO, cat. D2650) at 800-fold the tested concentration and stored at -70 degrees C prior to their use. All drugs and investigational agents were tested over a range starting from a high concentration at or near the clinical Cmax and decreasing in half-log increments. If the clinical Cmax for an agent had not been determined, the highest concentration tested was 10 microM.
NCI60 Cell Culture. NCI60 cell lines were obtained from the NCI Developmental Therapeutics Program Tumor Repository. For each lot of cells, the Repository performed Applied Biosystems AmpFLSTR Identifiler testing with PCR amplification to confirm consistency with the published Identifier STR profile for each cell line. Cells were kept in continuous culture for no more than 20 passages. The optimal seeding densities for each of the cell lines at each time point assessed were determined prior to performing the concentration response studies. Briefly, the NCI60 human tumor lines were grown as monolayers in RPMI 1640 medium supplemented with 10% FBS and 2 mmol/L L-glutamine.
An additional 2 lines were from the NCI60 cell line panel including melanomas, MALME-3M and SK-MEL-2. Pooled donor human umbilical vein endothelial cells (HUVEC, Lonza, cat. CC-2519) and human mesenchymal stem cells (hMSC, Lonza, cat. PT-2501) were purchased from Lonza (Walkersville, MD).
PDMR cell lines were grown in complete medium (DC medium): Dulbecco's modified Eagle's medium (DMEM)/F12 supplemented with 5% fetal bovine serum (FBS), 2 mM L-glutamine, 100 U/mL penicillin and 100 µg/ml streptomycin, 0.4 µg/ml hydrocortisone, 10 ng/ml epidermal growth factor (EGF) recombinant human protein, 24 µg/mL adenine, and 0.1 mg/mL primocin. During culture from frozen stock vials, PDMR cells were cultured in the same medium containing 10 µM Y-27632 (see Table 3). The PDCs were cultured in complete DMEM/F12 media without 10 microM Y-27632 dihydrochloride for at least two passages prior to the screen. The pooled donor HUVEC and hMSC were cultured in endothelial cell growth medium 2 (PromoCell, Heidelberg, Germany, cat. C-22011) and mesenchymal stem cell growth medium 2 (PromoCell, cat. C-28009), respectively. For all experiments, HUVEC and hMSC were used at passages </=5.
For the pre-screen, cell seeding densities were determined from a titration spanning the range from 5,000 to 313 cells per well. The mct-spheroids including 60% malignant cells, 25% HUVEC and 15% MSC dispensed as a mixture into U-bottom Ultra-Low Attachment 384-well plates (Corning, NY)
High-throughput Drug Combination Screening.
Prior to their inoculation into 384-well plates, malignant cells, HUVEC, and hMSC were removed from T flasks using TrypLE express (Thermo Fisher Scientific, cat. 12605036) and harvested by centrifugation for 5 min at 233 x g. […]
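Also: spheroids exposed to drugs for seven days.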
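For viability, T/C in this document: 100% = DMSO vehicle control wells.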

SMILES: CC(=O)Nc1cccc(-n2c(=O)n(C3CC3)c(=O)c3c(Nc4ccc(I)cc4F)n(C)c(=O)c(C)c32)c1 + CC(C)NCC(C(=O)N1CCN(c2ncnc3c2C(C)CC3O)CC1)c1ccc(Cl)cc1
- IC50 (second compound 0.3 µM): 9.39 nM
- IC50 (second compound 0.949 µM): 5.66 nM
- IC50 (second compound 3 µM): 5.23 nM
- IC50 (second compound 9.49 µM): 4.87 nM
- IC50 (second compound 30 µM): 1.23 nM
- viability, T/C (second compound 0.3 µM, first compound 94.9 pM): 99.7%
- viability, T/C (second compound 0.3 µM, first compound 0.0003 µM): 93%
- viability, T/C (second compound 0.3 µM, first compound 0.000949 µM): 74.4%
- viability, T/C (second compound 0.3 µM, first compound 0.003 µM): 68.9%
- viability, T/C (second compound 0.3 µM, first compound 0.00949 µM): 48.6%
- viability, T/C (second compound 0.3 µM, first compound 0.03 µM): 33.7%
- viability, T/C (second compound 0.949 µM, first compound 94.9 pM): 92.4%
- viability, T/C (second compound 0.949 µM, first compound 0.0003 µM): 86.3%
- viability, T/C (second compound 0.949 µM, first compound 0.000949 µM): 75.5%
- viability, T/C (second compound 0.949 µM, first compound 0.003 µM): 57.1%
- viability, T/C (second compound 0.949 µM, first compound 0.00949 µM): 44.3%
- viability, T/C (second compound 0.949 µM, first compound 0.03 µM): 31.5%
- viability, T/C (second compound 3 µM, first compound 94.9 pM): 88.1%
- viability, T/C (second compound 3 µM, first compound 0.0003 µM): 83.5%
- viability, T/C (second compound 3 µM, first compound 0.000949 µM): 70%
- viability, T/C (second compound 3 µM, first compound 0.003 µM): 56.3%
- viability, T/C (second compound 3 µM, first compound 0.00949 µM): 43.6%
- viability, T/C (second compound 3 µM, first compound 0.03 µM): 30.1%
- viability, T/C (second compound 9.49 µM, first compound 94.9 pM): 81.4%
- viability, T/C (second compound 9.49 µM, first compound 0.0003 µM): 82.7%
- viability, T/C (second compound 9.49 µM, first compound 0.000949 µM): 69.9%
- viability, T/C (second compound 9.49 µM, first compound 0.003 µM): 57.4%
- viability, T/C (second compound 9.49 µM, first compound 0.00949 µM): 40.3%
- viability, T/C (second compound 9.49 µM, first compound 0.03 µM): 26.1%
- viability, T/C (second compound 30 µM, first compound 94.9 pM): 70%
- viability, T/C (second compound 30 µM, first compound 0.0003 µM): 67.5%
- viability, T/C (second compound 30 µM, first compound 0.000949 µM): 53%
- viability, T/C (second compound 30 µM, first compound 0.003 µM): 36.1%
- viability, T/C (second compound 30 µM, first compound 0.00949 µM): 24.1%
- viability, T/C (second compound 30 µM, first compound 0.03 µM): 13.6%

SMILES: CC(C)CC(NC(=O)CNC(=O)c1cc(Cl)ccc1Cl)B1OC(=O)CC(CC(=O)O)(C(=O)O)O1 (stereo not given) + CC(C)NCC(C(=O)N1CCN(c2ncnc3c2C(C)CC3O)CC1)c1ccc(Cl)cc1
- IC50 (second compound 0.3 µM): 49.3 nM
- IC50 (second compound 0.949 µM): 43.2 nM
- IC50 (second compound 3 µM): 45.8 nM
- IC50 (second compound 9.49 µM): 30.6 nM
- IC50 (second compound 30 µM): 17.5 nM
- viability, T/C (second compound 0.3 µM, first compound 0.000316 µM): 102%
- viability, T/C (second compound 0.3 µM, first compound 0.001 µM): 104%
- viability, T/C (second compound 0.3 µM, first compound 0.00316 µM): 108%
- viability, T/C (second compound 0.3 µM, first compound 0.01 µM): 99.4%
- viability, T/C (second compound 0.3 µM, first compound 0.0316 µM): 68.4%
- viability, T/C (second compound 0.3 µM, first compound 0.1 µM): 20.7%
- viability, T/C (second compound 0.949 µM, first compound 0.000316 µM): 102%
- viability, T/C (second compound 0.949 µM, first compound 0.001 µM): 99.8%
- viability, T/C (second compound 0.949 µM, first compound 0.00316 µM): 102%
- viability, T/C (second compound 0.949 µM, first compound 0.01 µM): 98.8%
- viability, T/C (second compound 0.949 µM, first compound 0.0316 µM): 60.3%
- viability, T/C (second compound 0.949 µM, first compound 0.1 µM): 22.4%
- viability, T/C (second compound 3 µM, first compound 0.000316 µM): 91.8%
- viability, T/C (second compound 3 µM, first compound 0.001 µM): 101%
- viability, T/C (second compound 3 µM, first compound 0.00316 µM): 96.7%
- viability, T/C (second compound 3 µM, first compound 0.01 µM): 101%
- viability, T/C (second compound 3 µM, first compound 0.0316 µM): 65.9%
- viability, T/C (second compound 3 µM, first compound 0.1 µM): 16.4%
- viability, T/C (second compound 9.49 µM, first compound 0.000316 µM): 86%
- viability, T/C (second compound 9.49 µM, first compound 0.001 µM): 92.5%
- viability, T/C (second compound 9.49 µM, first compound 0.00316 µM): 93.4%
- viability, T/C (second compound 9.49 µM, first compound 0.01 µM): 93.6%
- viability, T/C (second compound 9.49 µM, first compound 0.0316 µM): 48.8%
- viability, T/C (second compound 9.49 µM, first compound 0.1 µM): 15.6%
- viability, T/C (second compound 30 µM, first compound 0.000316 µM): 77.9%
- viability, T/C (second compound 30 µM, first compound 0.001 µM): 91.7%
- viability, T/C (second compound 30 µM, first compound 0.00316 µM): 88.2%
- viability, T/C (second compound 30 µM, first compound 0.01 µM): 76.2%
- viability, T/C (second compound 30 µM, first compound 0.0316 µM): 22.2%
- viability, T/C (second compound 30 µM, first compound 0.1 µM): 5.95%
